Measurements as given in patent US10208033B2, “β-carboline, dihydro-β-carboline and tetrahydro-β-carboline alkaloid derivatives and preparation methods same and use in aspects of preventing and treating plant viruses, fungicides and insecticides” (NANKAI UNIVERSITY, priority 2013, dated 2019).
Structures can show the parent of a compound that is named as a salt. Where two headings read alike, the source gives them in different places.

Tests used:
[1] = test system: tobacco mosaic virus (TMV); test: Anti-TMV in vitro effect (half-leaf soaking); assay type: cell-based, tobacco mosaic virus (host Nicotiana tabacum L.cv.Xanthi NN)
Cercospora arachidicola = test: Fungicidal (bactericidal) activity in vitro, PDA colony diameter; assay type: cell-based; conditions: 50 mg/kg
Fusarium graminearumt = test: microbe, parasite or virus in culture; assay type: cell-based; conditions: 50 mg/kg
mosquito larvae = test: whole plant or invertebrate
Experimental: Experimental method of mosquito larvae: culex pipiens pallens, a normal colony raised indoors. Weigh about 5 mg of the compound for test, put it in a penicillin vial, add 5 mL of acetone (or an appropriate solvent), and shake and dissolve it to obtain a 1000 ppm mother solution. Pipette 0.5 mL of the mother solution, add it to a 100 mL beaker filled with 89.9 mL of water, select 10 mosquito larvae at the beginning of the fourth instar, and pour them to a beaker together with 10 mL of feeding solution. The concentration of the drug solution is 5 ppm. […] Use an aqueous solution containing 0.5 mL of test solvent as a blank.

Sclerotinia scleotiorum = test: Fungicidal (bactericidal) activity in vitro, PDA colony diameter; assay type: cell-based; conditions: 50 mg/kg
Phytophthora capsici = test: as above; assay type: cell-based; conditions: 50 mg/kg
Macrophoma kawatsukai = test: as above; assay type: cell-based; conditions: 50 mg/kg
Botrytis cinerea = test: as above; assay type: cell-based; conditions: 50 mg/kg
Fusarium fujikuroi = test: as above; assay type: cell-based; conditions: 50 mg/kg
Alternaria solani = test: as above; assay type: cell-based; conditions: 50 mg/kg
[2] = test system: Colletotrichum orbiculare; test: as above; assay type: cell-based; conditions: 50 mg/kg
[3] = test system: tobacco mosaic virus (TMV); test: Anti-TMV in vivo inactivation; set-up: species or system tobacco mosaic virus (host Nicotiana tabacum L.cv.Xanthi NN)
[4] = test system: tobacco mosaic virus (TMV); test: Anti-TMV in vivo protective effect; set-up: species or system tobacco mosaic virus (host Nicotiana tabacum L.cv.Xanthi NN)
Rhizoctonia solani = test: Fungicidal (bactericidal) activity in vitro, PDA colony diameter; assay type: cell-based; conditions: 50 mg/kg
armyworms = assay type: in vivo; conditions: concentration 600 mg/kg
[5] = test system: tobacco mosaic virus (TMV); test: Anti-TMV in vivo therapeutic effect; set-up: species or system tobacco mosaic virus (host Nicotiana tabacum L.cv.Xanthi NN)
potato late blight = test: microbe, parasite or virus in culture; assay type: cell-based
Bipolaria maydis = test: organism not typed; assay type: cell-based; conditions: 50 mg/kg
cucumber fusarium wilt = test: Fungicidal (bactericidal) activity in vitro, PDA colony diameter; assay type: cell-based; conditions: 50 mg/kg
Rhizoctonia cereali = test: as above; assay type: cell-based; conditions: 50 mg/kg
cotton bollworms = test: whole plant or invertebrate
Experimental: Experimental method of cotton bollworms: feed and drug mixing method: measure 3 mL of prepared solution and add it to about 27 g of newly prepared feed, thereby obtaining needed concentration through dilution by 10 times.

## O=C(O)/C=C/c1cc2c([nH]c3ccccc32)c(-c2cccs2)n1 [Ia-15, (E)-3-(1-(thiophene-2)-pyridino [3,4-b]indol-3)-acrylic acid]
[1]; treatment dose 100 μg/mL
  Relative inhibition rate (%) In vitro activity: 0%
[1]; treatment dose 500 μg/mL
  Relative inhibition rate (%) In vitro activity: 40.2%
Cercospora arachidicola
  Bactericidal activity (%) Cercospora arachidicola: 21.4%
Fusarium graminearumt
  Bactericidal activity (%) Fusarium graminearumt: 78.6%
Mosquito larvae; concentration 10 mg/kg, 24 h
  Mosquito larvae Mortality (%): 35%
Sclerotinia scleotiorum
  Bactericidal activity (%) Sclerotinia scleotiorum: 76.0%
Phytophthora capsici
  Bactericidal activity (%) Phytophthora capsici: 66.7%
Macrophoma kawatsukai
  Bactericidal activity (%) Macrophoma kawatsukai: 58.8%
Botrytis cinerea
  Bactericidal activity (%) Botrytis cinerea: 68.2%
Fusarium fujikuroi
  Bactericidal activity (%) Fusarium fujikuroi: 64.3%
Alternaria solani
  Bactericidal activity (%) Alternaria solani: 22.2%
[2]
  Bactericidal activity (%) Colletotrichum orbiculare: 66.7%
[3]; treatment dose 100 μg/mL
  Relative inhibition rate (%) In vivo inactivation: 13.5%
[3]; treatment dose 500 μg/mL
  Relative inhibition rate (%) In vivo inactivation: 39.6%
[4]; treatment dose 100 μg/mL
  Relative inhibition rate (%) In vivo protection: 10.2%
[4]; treatment dose 500 μg/mL
  Relative inhibition rate (%) In vivo protection: 35.1%
Rhizoctonia solani
  Bactericidal activity (%) Rhizoctonia solani: 17.9%
armyworms
  Armyworm Mortality (%): 15%
Corn borers; concentration 600 mg/kg
  Corn borer Mortality (%): 5%
[5]; treatment dose 100 μg/mL
  Relative inhibition rate (%) In vivo therapy: 10%
[5]; treatment dose 500 μg/mL
  Relative inhibition rate (%) In vivo therapy: 36.2%
Potato late blight
  Bactericidal activity (%) potato late blight: 55.0%
Bipolaria maydis
  Bactericidal activity (%) Bipolaria maydis: 73.7%
Cucumber fusarium wilt
  Bactericidal activity (%) Cucumber fusarium wilt: 33.3%
Rhizoctonia cereali
  Bactericidal activity (%) Rhizoctonia cereali: 81.3%
Cotton bollworms; concentration 600 mg/kg
  Cotton bollworm Mortality (%): 15%

## O=C(O)/C=C/c1cc2c([nH]c3ccccc32)c(-c2cccnc2)n1 [Ia-16, (E)-3-(1-(pyridine-3)-pyridino [3,4-b]indol-3)-acrylic acid]
[1]; treatment dose 100 μg/mL
  Relative inhibition rate (%) In vitro activity: 0%
[1]; treatment dose 500 μg/mL
  Relative inhibition rate (%) In vitro activity: 17.8%
Cercospora arachidicola
  Bactericidal activity (%) Cercospora arachidicola: 0.0%
Fusarium graminearumt
  Bactericidal activity (%) Fusarium graminearumt: 42.9%
Mosquito larvae; in vivo
  Mosquito larvae Mortality (%): 20%
Sclerotinia scleotiorum
  Bactericidal activity (%) Sclerotinia scleotiorum: 76.0%
Phytophthora capsici
  Bactericidal activity (%) Phytophthora capsici: 9.1%
Macrophoma kawatsukai
  Bactericidal activity (%) Macrophoma kawatsukai: 23.5%
Botrytis cinerea
  Bactericidal activity (%) Botrytis cinerea: 4.6%
Fusarium fujikuroi
  Bactericidal activity (%) Fusarium fujikuroi: 28.6%
Alternaria solani
  Bactericidal activity (%) Alternaria solani: 22.2%
[2]
  Bactericidal activity (%) Colletotrichum orbiculare: 23.8%
[3]; treatment dose 100 μg/mL
  Relative inhibition rate (%) In vivo inactivation: 0%
[3]; treatment dose 500 μg/mL
  Relative inhibition rate (%) In vivo inactivation: 26.5%
[4]; treatment dose 100 μg/mL
  Relative inhibition rate (%) In vivo protection: 0%
[4]; treatment dose 500 μg/mL
  Relative inhibition rate (%) In vivo protection: 21.3%
Rhizoctonia solani
  Bactericidal activity (%) Rhizoctonia solani: 0.0%
armyworms
  Armyworm Mortality (%): 10%
Corn borers; in vivo
  Corn borer Mortality (%): 10%
[5]; treatment dose 100 μg/mL
  Relative inhibition rate (%) In vivo therapy: 0%
[5]; treatment dose 500 μg/mL
  Relative inhibition rate (%) In vivo therapy: 20.2%
Potato late blight
  Bactericidal activity (%) potato late blight: 15.0%
Bipolaria maydis
  Bactericidal activity (%) Bipolaria maydis: 15.8%
Cucumber fusarium wilt
  Bactericidal activity (%) Cucumber fusarium wilt: 4.8%
Rhizoctonia cereali
  Bactericidal activity (%) Rhizoctonia cereali: 53.1%
Cotton bollworms; in vivo
  Cotton bollworm Mortality (%): 5%

## CCOC(=O)[C@@H]1Cc2c([nH]c3ccccc23)CN1 [Ib-7, (S)-2,3,4,9-tetrahydropyridino [3,4-b] indol-3-ethyl formate]
[1]; treatment dose 100 μg/mL
  Relative inhibition rate (%) In vitro activity: 12.3%
[1]; treatment dose 500 μg/mL
  Relative inhibition rate (%) In vitro activity: 26.9%
Cercospora arachidicola
  Bactericidal activity (%) Cercospora arachidicola: 42.9%
Fusarium graminearumt
  Bactericidal activity (%) Fusarium graminearumt: 42.9%
Mosquito larvae; concentration 10 mg/kg, 24 h
  Mosquito larvae Mortality (%): 15%
Sclerotinia scleotiorum
  Bactericidal activity (%) Sclerotinia scleotiorum: 60.0%
Phytophthora capsici
  Bactericidal activity (%) Phytophthora capsici: 66.7%
Macrophoma kawatsukai
  Bactericidal activity (%) Macrophoma kawatsukai: 64.7%
Botrytis cinerea
  Bactericidal activity (%) Botrytis cinerea: 50.0%
Fusarium fujikuroi
  Bactericidal activity (%) Fusarium fujikuroi: 64.3%
Alternaria solani
  Bactericidal activity (%) Alternaria solani: 50.0%
[2]
  Bactericidal activity (%) Colletotrichum orbiculare: 47.6%
[3]; treatment dose 100 μg/mL
  Relative inhibition rate (%) In vivo inactivation: 19.3%
[3]; treatment dose 500 μg/mL
  Relative inhibition rate (%) In vivo inactivation: 36.5%
[4]; treatment dose 100 μg/mL
  Relative inhibition rate (%) In vivo protection: 16.2%
[4]; treatment dose 500 μg/mL
  Relative inhibition rate (%) In vivo protection: 40.1%
Rhizoctonia solani
  Bactericidal activity (%) Rhizoctonia solani: 42.9%
armyworms
  Armyworm Mortality (%): 5%
Corn borers; concentration 600 mg/kg
  Corn borer Mortality (%): 5%
[5]; treatment dose 100 μg/mL
  Relative inhibition rate (%) In vivo therapy: 15.9%
[5]; treatment dose 500 μg/mL
  Relative inhibition rate (%) In vivo therapy: 30.7%
Potato late blight
  Bactericidal activity (%) potato late blight: 40.0%
Bipolaria maydis
  Bactericidal activity (%) Bipolaria maydis: 42.1%
Cucumber fusarium wilt
  Bactericidal activity (%) Cucumber fusarium wilt: 33.3%
Rhizoctonia cereali
  Bactericidal activity (%) Rhizoctonia cereali: 78.1%
Cotton bollworms; concentration 600 mg/kg
  Cotton bollworm Mortality (%): 20%

## CCCCOC(=O)[C@@H]1Cc2c([nH]c3ccccc23)[C@H](C)N1 [Ib-8, (1S, 3S)-1-methyl-2,3,4,9-tetrahydropyridino [3,4-b] indol-3-butyl formate]
[1]; treatment dose 100 μg/mL
  Relative inhibition rate (%) In vitro activity: 13.4%
[1]; treatment dose 500 μg/mL
  Relative inhibition rate (%) In vitro activity: 48.2%
Cercospora arachidicola
  Bactericidal activity (%) Cercospora arachidicola: 71.4%
Fusarium graminearumt
  Bactericidal activity (%) Fusarium graminearumt: 50.0%
Mosquito larvae; concentration 10 mg/kg, 24 h
  Mosquito larvae Mortality (%): 10%
Sclerotinia scleotiorum
  Bactericidal activity (%) Sclerotinia scleotiorum: 72.0%
Phytophthora capsici
  Bactericidal activity (%) Phytophthora capsici: 51.5%
Macrophoma kawatsukai
  Bactericidal activity (%) Macrophoma kawatsukai: 64.7%
Botrytis cinerea
  Bactericidal activity (%) Botrytis cinerea: 50.0%
Fusarium fujikuroi
  Bactericidal activity (%) Fusarium fujikuroi: 50.0%
Alternaria solani
  Bactericidal activity (%) Alternaria solani: 83.3%
[2]
  Bactericidal activity (%) Colletotrichum orbiculare: 38.1%
[3]; treatment dose 100 μg/mL
  Relative inhibition rate (%) In vivo inactivation: 20.3%
[3]; treatment dose 500 μg/mL
  Relative inhibition rate (%) In vivo inactivation: 51.3%
[4]; treatment dose 100 μg/mL
  Relative inhibition rate (%) In vivo protection: 17.6%
[4]; treatment dose 500 μg/mL
  Relative inhibition rate (%) In vivo protection: 43.2%
Rhizoctonia solani
  Bactericidal activity (%) Rhizoctonia solani: 55.4%
armyworms
  Armyworm Mortality (%): 5%
Corn borers; concentration 600 mg/kg
  Corn borer Mortality (%): 0%
[5]; treatment dose 100 μg/mL
  Relative inhibition rate (%) In vivo therapy: 17.1%
[5]; treatment dose 500 μg/mL
  Relative inhibition rate (%) In vivo therapy: 42.2%
Potato late blight
  Bactericidal activity (%) potato late blight: 35.0%
Bipolaria maydis
  Bactericidal activity (%) Bipolaria maydis: 89.5%
Cucumber fusarium wilt
  Bactericidal activity (%) Cucumber fusarium wilt: 33.3%
Rhizoctonia cereali
  Bactericidal activity (%) Rhizoctonia cereali: 84.4%
Cotton bollworms; concentration 600 mg/kg
  Cotton bollworm Mortality (%): 20%
